Laboratory results published in patent US20050287169A1, “Methods of use of genes of pyridoxal 5'-phosphate biosynthesis in Bacillus subtilis: avirulent strains for vaccines, and methods for identification of antibacterial agents” (priority 2003, published 2005).

Assays:
[1] = tested on: B. subtilis strain BB2253 (ΔpdxS); test: Growth of B. subtilis pdxS (yaaD) null mutant BB2253 with supplements; assay type: cell-based, Bacillus subtilis
Procedure: (§1) Bacterial strains, plasmids and culture media. B. subtilis strains were grown at 37° C. in TSS minimal medium with 0.5% glucose as the carbon source and 0.2% glutamate or NH4Cl as nitrogen source, in LB broth [Miller, 1972], or in DS nutrient broth medium [Fouet, 1990]. The same media with addition of agar were used for growth of bacteria on plates. LB broth or LB agar was used for growth of Escherichia coli strains. The following antibiotic concentrations were used as appropriate: chloramphenicol, 2.5 μg/ml; neomycin, 2.5-5 μg/ml; phleomycin, 0.25 μg/ml; spectinomycin, 50 μg/ml; or a combination of erythromycin, 0.5 μg/ml, and lincomycin, 12.5 μg/ml, for B. subtilis strains; ampicillin, 50-100 μg/ml; kanamycin, 25 μg/ml; spectinomycin, 50 μg/ml; or chloramphenicol, 10 μg/ml, for E. coli strains.
Construction of yaaD and yaaE null mutants. A deletion mutation within gene yaaD was created by cutting out the 606-bp fragment starting at the AatII site of pBB1181 (FIG. 2) and religating the remaining fragment after filling in its ends (the deletion endpoint, as determined by sequencing, was determined to be beyond the HindIII site, designed for this construct). In the resulting plasmid, pBB1185 (FIG. 2), the deletion was found not to alter the reading frame ofyaaD. pBB1218, a truncated version of pBB1185 (FIG. 2), was introduced by a single-crossover, homologous recombination event into the chromosome of strain SMY, selecting transformants for neomycin resistance. […] After growth of cells of the […] Pdx^− strain in the absence of neomycin, a Neos Pdx^− derivative was isolated. In this strain it was observed that the integrated pBB1218 had been excised from the chromosome and lost. Replacement of the wild-type yaaD gene by the ΔyaaD allele in strain BB2253 and excision of pBB1218 was confirmed by sizing PCR fragments generated from the yaaD locus and by probing for the loss of vector sequences.
Poor ability to utilize PN has been observed for uncharacterized B. subtilis mutants that appeared to require B6 vitamers for growth [Pflug, 1978]. B. subtilis cells apparently lack the pdxH-like gene and the corresponding pyridoxine 5′-phosphate oxidase activity [Pflug, 1983] required for conversion of pyridoxine to PLP.

[2] = tested on: B. subtilis pdxT mutant (strains BB2256, BB2290); test: Growth of B. subtilis pdxT (yaaE) null mutant with supplements; assay type: cell-based, Bacillus subtilis
Procedure: as §1
A deletion-insertion mutation within the yaaE gene was constructed by replacing a 135-bp SphI-EcoRI fragment of pBB1213 (FIG. 2) with a 1.4-kb SphI-EcoRI ble cassette determining resistance to phleomycin, excised from pJPM136 [Belitsky, 1998]. The orientation of the ble gene in the resulting plasmid pBB1217 (ΔyaaE::ble; FIG. 2) coincided with that of the yaaE gene. Plasmid pBB1217 was introduced into B. subtilis SMY, and Phlr NeoS transformants arising from double crossover homologous recombination events were selected. Replacement of the chromosomal yaaE gene by the ΔyaaE::ble allele in strain BB2256 was confirmed by comparing sizes of PCR fragments from each of the wild-type and the mutant yaaE chromosomal loci.

[3] = tested on: B. subtilis strain BB2267 (ΔpdxS ΔpdxZ::spc); test: Viability and growth of double pdxS pdxZ null mutant BB2267 with PLP precursors; assay type: cell-based, Bacillus subtilis; settings: for Viability of double mutant pdxS pdxZ (BB2267): DS nutrient broth or glucose-ammonium TSS medium
Excerpt: Double pdxS pdxZ and pdxT pdxZ null mutants, defective both in de novo and salvage pathways of PLP synthesis, were obtained by introducing the pdxZ mutation into the chromosome of the pdxS or pdxT mutant cells by transformation.
Viability of cells of strain BB2295 carrying both pdxS and pdxZ mutations was also obtained in the absence of exogenous pyridoxal in the presence of xylose, by conditionally restoring the de novo pathway of PLP synthesis with a xylose-inducible form of the pdxS gene at an ectopic location, i.e., located elsewhere on the chromosome. These and similarly constructed conditional lethal strains can be used for vaccine development, to overcome possible lethality to the bacteria during culture of cells carrying double pdxS and pdxZ or double pdxT and pdxZ mutations.

[4] = tested on: L. monocytogenes strain BL1 (ΔpdxST::spc); test: Growth of Listeria monocytogenes ΔpdxST::spc mutant BL1 with B6 vitamers; assay type: cell-based
Procedure: The resulting plasmid, pBB1212, was introduced into E. coli strain DW1030 containing conjugative plasmid pRK231.7, a broad host range plasmid of the IncP incompatibility group. pBB1212 was transferred from strain DW1030 (pBB1212) into L. monocytogenes cells by conjugation [Trieu-Cuot, 1987] at the temperature (30°) permissive for replication of pBB1212. The ΔpdxST::spc mutants, formed due to allelic exchange resulting from pBB1212 plasmid integration into the chromosome at the non-permissive temperature (41°) and excision at the permissive temperature, were obtained by screening colonies that lost the plasmid marker (chloramphenicol-resistance) and had retained resistance to spectinomycin. Replacement of the chromosomal pdxST locus by the ΔpdxST::spc allele in strain BL1 was confirmed by comparing the sizes of PCR fragments obtained by use of the wild-type and mutant pdxST chromosomal loci as templates.
These traits of the L. monocytogenes mutant are similar to those observed herein with the corresponding B. subtilis mutant.

pdxS-lacZ fusion = test: Expression of pdxS-lacZ fusion (β-galactosidase activity); assay type: cell-based, Bacillus subtilis; settings: for β-Galactosidase activity: NH4Cl 10 mM, PL 100 μM, glucose-minimal medium
Excerpt: Construction of transcriptional pdxS-lacZ (yaaD-lacZ) and pdxT-lacZ (yaaE-lacZ) fusions. The 1.35-kb BamHI-EcoRI fragment containing the entire intragenic region between dacA and pdxS, the entire pdxS gene, and the 5′-end of the pdxT gene (FIG. 2), was cut out from the PCR product generated using primers oBB120 and oBB121 and was cloned between the corresponding sites of pHK23 to construct pBB1254 (pdxST-lacZ; FIG. 2). Plasmid pHK23 containing an erythromycin resistance gene was derived from pLG103 [Belitsky et al., 2002, the entire contents of which are hereby incorporated by reference herein]. To construct plasmid pBB1259 with apdxS-lacZ fusion (FIG. 2), a 0.50-kb HindIII-EcoRI fragment containing the 3′-end of the pdxS gene and the 5′-end of thepdxT gene, was cut out of pBB1254, and the plasmid was blunt-ended and religated. To construct plasmid pBB1262 with a pdxT-lacZ fusion (FIG. 2), a 0.43-kb BamHI-BseRI fragment, containing the pdxS promoter and the 5′-part of the pdxS gene, was cut out of pBB1254, and the plasmid was blunt-ended and religated. Strains BB2277, 2279, and 2285 carrying thepdx-lacZ transcriptional fusions integrated at the amyE locus were isolated after transforming strain SMY with pBB1254, 1259, and 1262, respectively, selecting for resistance to erythromycin and screening for loss both of α-amylase production (Amy) and vector sequences as indications of a double crossover, homologous recombination event. The Amy phenotype was assayed using colonies grown overnight on Tryptose Blood Agar Base (Difco)-0.2% starch plates [Fouet, 1990].
Activity of β-galactosidase was determined as described previously [Belitsky, 1995]. Specific activities are expressed in Miller units (1000×OD420/min·ml·OD600) [Miller, 1972].
ApdxS-lacZ transcriptional fusion (plasmid pBB1259; FIG. 2) was constructed as described in Materials and Methods herein, and was integrated at the ectopic amyE locus of the B. subtilis chromosome (strain BB2279).
No effect of addition of excess pyridoxal (up to 1 mM) was observed on expression or on growth rate. Further, a moderate activation of expression (about 3-4-fold) was observed as a result of B6 limitation, for example, by growth of apdxT mutant in LB broth. This effect was not observed or was much less pronounced for the pdxT mutant using LB broth supplemented with excess PL or NH4Cl (FIG. 6), or in a wild type strain. Further, a 2-3-fold decrease in β-galactosidase activity was observed inpdxT mutant cells grown in TSS-glucose mediume with limiting concentrations of ammonium salts, and this decrease in pdxS-lacZ expression was prevented by the presence of PL (Table 5).

[5] = tested on: B. subtilis strain BB2279 (wild-type); test: Growth rate of wild-type B. subtilis strain BB2279 carrying pdxS-lacZ; assay type: cell-based, Bacillus subtilis
Procedure: as §1
No effect of addition of excess pyridoxal (up to 1 mM) was observed on expression or on growth rate. Further, a moderate activation of expression (about 3-4-fold) was observed as a result of B6 limitation, for example, by growth of apdxT mutant in LB broth. This effect was not observed or was much less pronounced for the pdxT mutant using LB broth supplemented with excess PL or NH4Cl (FIG. 6), or in a wild type strain. […]

[6] = tested on: Bacillus circulans pdxT mutant; settings: addition of pyridoxine; cited from earlier work
[7] = tested on: G. stearothermophilus PdxT-His6 protein
[8] = biological target: T1, wild-type B. subtilis PdxS protein (Bacillus subtilis, UniProt P37527 2-294); test: co-purification on a Ni2+-affinity column from E. coli co-expressing both proteins (0.5 M NaCl, 0.4 M imidazole), SDS-PAGE
T1 construct: Co-expressed with PdxT-His6 in E. coli; also called YaaD; unmodified PdxS
T1 sequence (looked up): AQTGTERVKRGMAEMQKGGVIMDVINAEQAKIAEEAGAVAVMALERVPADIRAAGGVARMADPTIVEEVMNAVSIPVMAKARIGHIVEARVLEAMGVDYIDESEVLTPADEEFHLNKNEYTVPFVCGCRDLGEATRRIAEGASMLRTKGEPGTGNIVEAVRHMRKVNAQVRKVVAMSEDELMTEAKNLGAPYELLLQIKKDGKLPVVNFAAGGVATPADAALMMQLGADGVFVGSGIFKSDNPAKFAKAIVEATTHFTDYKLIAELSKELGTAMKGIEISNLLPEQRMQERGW
Procedure: pBAD derivatives were introduced into E. coli LMG194 (ara⁻) [Guzman, 1995] cells by transformation. The PdxS and/or PdxT proteins were induced in L-broth cultures (A₆₀₀=0.25−0.4) by addition of 0.2% L-arabinose and incubation for four hours. Cells were pelleted, were washed in 50 mM tris-Cl (pH 8.0)-5% glycerol and were disrupted by sonication in modified Novagen binding buffer (20 mM tris-Cl (pH 7.9)-500 mM NaCl-5 mM imidazole-5% glycerol) plus 1 mM phenylmethylsulfonyl fluoride and 0.1% Nonidet P-40. The sonicate was clarified by low speed centrifugation, and the supernatant was purified using a 2 ml Ni²⁺-column (Novagen) as described by the manufacturer. Buffers containing increasing concentrations of imidazole, from 30 mM to 1 M, were initially used for elution, and 485 mM and 385 mM imidazole were found suitable for elution of PdxS and PdxT proteins, respectively.
E. coli strains overproducing each of the wild-type version of the B. subtilis PdxS protein and the His₆-tagged version of PdxT were constructed, and were used for purification of the PdxT-His₆ protein by Ni²⁺-affinity chromatography.

[9] = strain BB2279, up to 1 mM pyridoxal
[10] = isoleucine 500 μg/ml, with or without pyridoxine

Cc1ncc(COP(=O)(O)O)c(C=O)c1O [PLP, Pyridoxal 5′-phosphate]
Growth of strain BB2253 in the presence of PLP [1]: Poor growth

Cc1ncc(CO)c(C=O)c1O [pyridoxal]
Growth of B. subtilis ΔpdxS ([1]; FIG. 3A, 0.01 μM pyridoxal): no growth observed
Minimal concentration of pyridoxal supporting growth of B. subtilis ΔpdxS ([1]; FIG. 3A, growth rate a function of PL concentration up to 10 μM): 0.03 µM
Growth defects of strain BB2253 in rich media on addition of pyridoxal ([1]; LB-broth, brain heart infusion medium or DS medium): relieved
Restoration of growth of strain BB2253 ([1]; minimal media, 1 μM pyridoxal): fully restored
Growth rate ([2]; BB2290 pdxT, NH4Cl 10 mM, PL 100 μM, glucose-minimal medium): 60 min
Growth rate of strain BB2256 in the presence of PL ([2]; minimal and rich media): restored to that of the wild type cell
Growth and viability of double mutant pdxS pdxZ ([3]; 1 mM pyridoxal): Growth and viability
Pyridoxal concentration needed by the double mutant relative to that required for full growth of the pdxS mutant ([3]; 1 mM versus 1 μM): 1000 fold
Viability of double mutant pdxS pdxZ (BB2267) ([3]; 1 μM pyridoxal): non-viable
Restoration of growth of strain BL1 ([4]; 1 μM pyridoxal): fully restored
β-Galactosidase activity (pdxS-lacZ fusion; BB2279 wild-type): 190.4 Miller units
β-Galactosidase activity (pdxS-lacZ fusion; BB2290 pdxT): 142.4 Miller units
Effect of PL on the 2-3-fold decrease in pdxS-lacZ expression in pdxT mutant cells (pdxS-lacZ fusion; TSS-glucose medium, limiting ammonium salts): prevented
Effect of excess pyridoxal on pdxS-lacZ expression (pdxS-lacZ fusion; [9]): No effect
Growth rate ([5]; BB2279 wild-type, NH4Cl 10 mM, PL 100 μM, glucose-minimal medium): 60 min
Effect of excess pyridoxal on growth rate [5, 9]: No effect

Cc1ncc(CO)c(CO)c1O [pyridoxine]
Restoration of growth of strain BB2253 ([1]; 200 μM pyridoxine): only partially restored
Viability of double mutant pdxS pdxZ (BB2267) ([3]; 200 μM pyridoxine): non-viable
Restoration of growth of strain BL1 ([4]; 100 μM pyridoxine): not at all
Remediation of growth defect of B. circulans pdxT mutant [6]: not remediated

CC[C@H](C)[C@H](N)C(=O)O [isoleucine]
Effect on growth of the pdxS mutant [1, 10]: No effect
Effect on growth of the pdxT mutant [2, 10]: No effect

Cc1ncc(CO)c(CN)c1O [Pyridoxamine]
Effectiveness for growth of the mutant compared with pyridoxal ([1]; strain BB2253): several-fold less effective

G. stearothermophilus PdxS containing a His6-tag at its C-terminus
glutaminase activity [7]: It was found that the G. stearothermophilus PdxST complex has glutaminase activity

B1: His6-tagged version of B. subtilis PdxT (enzyme, Bacillus subtilis)
chain: MLTIGVLGLQGAVREHIHAIEACGAAGLVVKRPEQLNEVDGLILPGGESTTMRRLIDTYQFMEPLREFAAQGKPMFGTCAGLIILAKEIAGSDNPHLGLLNVVVERNSFGRQVDSFEADLTIKGLDEPFTGVFIRAPHILEAGENVEVLSEHNGRIVAAKQGQFLGCSFHPELTEDHRVTQLFVEMVEEYKQKALVHHHHHH
notes: Overproduced in E. coli from pBB1252 (with PdxS) or pBB1256 (alone) and purified on a Ni2+ column; also called PdxT-His6; PdxT-H6
binding result [8]: binds
